{"source": "patent US20220400676A1", "about": "“HERBICIDAL COMPOUNDS” (SYNGENTA CROP PROTECTION AG, priority 2019, published 2022)", "key": {"ZEAMX": {"test_system": "ZEAMX", "test": "Comparative Test (Post-Emergence), crop", "type": "in vivo, corn"}, "AMARE": {"test_system": "AMARE", "test": "Comparative Test (Post-Emergence), weed", "type": "in vivo, Amaranthus retoflexus", "protocol": "(§1) Seeds of a variety of test species are sown in standard soil in pots Amaranthus retoflexus (AMARE), Echinochloa crus-galli (ECHCG), Setaria faberi (SETFA)). After cultivation for one day (pre-emergence) or after 8 days cultivation (post-emergence) under controlled conditions in a glasshouse (at 24/16° C., day/night; 14 hours light; 65% humidity), the plants are sprayed with an aqueous spray solution derived from the formulation of the technical active ingredient in acetone/water (50:50) solution containing 0.5% Tween 20 (polyoxyethelyene sorbitan monolaurate, CAS RN 9005-64-5). Compounds are applied at 250 g/ha unless otherwise stated. The test plants are then grown in a glasshouse under controlled conditions in a glasshouse (at 24/16° C., day/night; 14 hours light; 65% humidity) and watered twice daily. After 13 days for pre- and post-emergence, the test is evaluated for the percentage damage caused to the plant. The biological activities are shown in the following table on a five-point scale (5=81-100%; 4=61-80%; 3=41-60%; 2=21-40%; 1=0-20%)."}, "Setaria faberi (SETFA) [1]": {"test_system": "Setaria faberi (SETFA)", "test": "Pre-emergence herbicidal glasshouse test", "type": "in vivo", "settings": "250 g/ha, evaluated after 13 days", "protocol": "as §1"}, "[2]": {"test_system": "Amaranthus retoflexus (AMARE)", "test": "Pre-emergence herbicidal glasshouse test", "type": "in vivo", "settings": "250 g/ha, evaluated after 13 days", "protocol": "as §1"}, "[3]": {"test_system": "Echinochloa crus-galli (ECHCG)", "test": "Pre-emergence herbicidal glasshouse test", "type": "in vivo", "settings": "250 g/ha, evaluated after 13 days", "protocol": "as §1"}, "Setaria faberi (SETFA) [4]": {"test_system": "Setaria faberi (SETFA)", "test": "Post-emergence herbicidal glasshouse test", "type": "in vivo", "settings": "250 g/ha, evaluated after 13 days", "protocol": "as §1"}, "[5]": {"test_system": "Amaranthus retoflexus (AMARE)", "test": "Post-emergence herbicidal glasshouse test", "type": "in vivo", "settings": "250 g/ha, evaluated after 13 days", "protocol": "as §1"}, "[6]": {"test_system": "Echinochloa crus-galli (ECHCG)", "test": "Post-emergence herbicidal glasshouse test", "type": "in vivo", "settings": "250 g/ha, evaluated after 13 days", "protocol": "as §1"}}, "data": [{"smiles": "COc1ccnc(Oc2cccc(F)c2-c2cc(C(F)F)no2)n1", "values": [{"measurement": "% Phytotoxicity ZEAMX", "setting": "ZEAMX; rate 16 g/ha", "result": 0, "unit": "%"}, {"measurement": "% Phytotoxicity ZEAMX", "setting": "ZEAMX; rate 63 g/ha", "result": 10, "unit": "%"}, {"measurement": "% Phytotoxicity ZEAMX", "setting": "ZEAMX; rate 250 g/ha", "result": 20, "unit": "%"}, {"measurement": "% Phytotoxicity AMARE", "setting": "AMARE; rate 16 g/ha", "result": 0, "unit": "%"}, {"measurement": "% Phytotoxicity AMARE", "setting": "AMARE; rate 63 g/ha", "result": 10, "unit": "%"}, {"measurement": "% Phytotoxicity AMARE", "setting": "AMARE; rate 250 g/ha", "result": 20, "unit": "%"}]}, {"smiles": "COc1cc(OC)nc(Oc2cccc(F)c2-c2cc(C(F)F)no2)n1", "values": [{"measurement": "% Phytotoxicity ZEAMX", "setting": "ZEAMX; rate 16 g/ha", "result": 0, "unit": "%"}, {"measurement": "% Phytotoxicity ZEAMX", "setting": "ZEAMX; rate 33 g/ha", "result": 0, "unit": "%"}, {"measurement": "% Phytotoxicity ZEAMX", "setting": "ZEAMX; rate 250 g/ha", "result": 0, "unit": "%"}, {"measurement": "% Phytotoxicity AMARE", "setting": "AMARE; rate 16 g/ha", "result": 0, "unit": "%"}, {"measurement": "% Phytotoxicity AMARE", "setting": "AMARE; rate 33 g/ha", "result": 0, "unit": "%"}, {"measurement": "% Phytotoxicity AMARE", "setting": "AMARE; rate 250 g/ha", "result": 0, "unit": "%"}]}, {"smiles": "CNc1ncnc(Oc2cccc(F)c2-c2cc(C(F)F)no2)c1Cl", "note": "[Compound 2.002]", "values": [{"measurement": "percentage damage caused to the plant, five-point scale, SETFA", "setting": "Setaria faberi (SETFA) [1]", "result": "1 (1=0-20%)"}, {"measurement": "percentage damage caused to the plant, five-point scale, AMARE", "setting": "[2]", "result": "2 (2=21-40%)"}, {"measurement": "percentage damage caused to the plant, five-point scale, ECHCG", "setting": "[3]", "result": "1 (1=0-20%)"}, {"measurement": "percentage damage caused to the plant, five-point scale, SETFA", "setting": "Setaria faberi (SETFA) [4]", "result": "1 (1=0-20%)"}, {"measurement": "percentage damage caused to the plant, five-point scale, AMARE", "setting": "[5]", "result": "2 (2=21-40%)"}, {"measurement": "percentage damage caused to the plant, five-point scale, ECHCG", "setting": "[6]", "result": "1 (1=0-20%)"}]}, {"smiles": "COc1cc(Oc2cccc(Br)c2-c2cc(C(F)F)no2)ncn1", "note": "[Compound 2.003]", "values": [{"measurement": "percentage damage caused to the plant, five-point scale, SETFA", "setting": "Setaria faberi (SETFA) [1]", "result": "5 (5=81-100%)"}, {"measurement": "percentage damage caused to the plant, five-point scale, AMARE", "setting": "[2]", "result": "5 (5=81-100%)"}, {"measurement": "percentage damage caused to the plant, five-point scale, ECHCG", "setting": "[3]", "result": "5 (5=81-100%)"}, {"measurement": "percentage damage caused to the plant, five-point scale, SETFA", "setting": "Setaria faberi (SETFA) [4]", "result": "4 (4=61-80%)"}, {"measurement": "percentage damage caused to the plant, five-point scale, AMARE", "setting": "[5]", "result": "3 (3=41-60%)"}, {"measurement": "percentage damage caused to the plant, five-point scale, ECHCG", "setting": "[6]", "result": "4 (4=61-80%)"}]}, {"smiles": "COc1cc(Oc2cccc(Cl)c2-c2cc(C(F)F)no2)ncn1", "note": "[Compound 2.004]", "values": [{"measurement": "percentage damage caused to the plant, five-point scale, SETFA", "setting": "Setaria faberi (SETFA) [1]", "result": "5 (5=81-100%)"}, {"measurement": "percentage damage caused to the plant, five-point scale, AMARE", "setting": "[2]", "result": "5 (5=81-100%)"}, {"measurement": "percentage damage caused to the plant, five-point scale, ECHCG", "setting": "[3]", "result": "5 (5=81-100%)"}, {"measurement": "percentage damage caused to the plant, five-point scale, SETFA", "setting": "Setaria faberi (SETFA) [4]", "result": "4 (4=61-80%)"}, {"measurement": "percentage damage caused to the plant, five-point scale, AMARE", "setting": "[5]", "result": "4 (4=61-80%)"}, {"measurement": "percentage damage caused to the plant, five-point scale, ECHCG", "setting": "[6]", "result": "4 (4=61-80%)"}]}, {"smiles": "CNc1cc(Oc2cccc(F)c2-c2cc(C(F)F)no2)ncn1", "note": "[Compound 2.005]", "values": [{"measurement": "percentage damage caused to the plant, five-point scale, SETFA", "setting": "Setaria faberi (SETFA) [1]", "result": "2 (2=21-40%)"}, {"measurement": "percentage damage caused to the plant, five-point scale, AMARE", "setting": "[2]", "result": "2 (2=21-40%)"}, {"measurement": "percentage damage caused to the plant, five-point scale, ECHCG", "setting": "[3]", "result": "2 (2=21-40%)"}, {"measurement": "percentage damage caused to the plant, five-point scale, SETFA", "setting": "Setaria faberi (SETFA) [4]", "result": "2 (2=21-40%)"}, {"measurement": "percentage damage caused to the plant, five-point scale, AMARE", "setting": "[5]", "result": "2 (2=21-40%)"}, {"measurement": "percentage damage caused to the plant, five-point scale, ECHCG", "setting": "[6]", "result": "2 (2=21-40%)"}]}, {"smiles": "Cc1cc(Oc2cccc(Br)c2-c2cc(C(F)F)no2)ncn1", "note": "[Compound 2.006]", "values": [{"measurement": "percentage damage caused to the plant, five-point scale, SETFA", "setting": "Setaria faberi (SETFA) [1]", "result": "4 (4=61-80%)"}, {"measurement": "percentage damage caused to the plant, five-point scale, AMARE", "setting": "[2]", "result": "2 (2=21-40%)"}, {"measurement": "percentage damage caused to the plant, five-point scale, ECHCG", "setting": "[3]", "result": "5 (5=81-100%)"}, {"measurement": "percentage damage caused to the plant, five-point scale, SETFA", "setting": "Setaria faberi (SETFA) [4]", "result": "3 (3=41-60%)"}, {"measurement": "percentage damage caused to the plant, five-point scale, AMARE", "setting": "[5]", "result": "1 (1=0-20%)"}, {"measurement": "percentage damage caused to the plant, five-point scale, ECHCG", "setting": "[6]", "result": "3 (3=41-60%)"}]}, {"smiles": "Cc1cc(Oc2cccc(Cl)c2-c2cc(C(F)F)no2)ncn1", "note": "[Compound 2.007]", "values": [{"measurement": "percentage damage caused to the plant, five-point scale, SETFA", "setting": "Setaria faberi (SETFA) [1]", "result": "5 (5=81-100%)"}, {"measurement": "percentage damage caused to the plant, five-point scale, AMARE", "setting": "[2]", "result": "4 (4=61-80%)"}, {"measurement": "percentage damage caused to the plant, five-point scale, ECHCG", "setting": "[3]", "result": "5 (5=81-100%)"}, {"measurement": "percentage damage caused to the plant, five-point scale, SETFA", "setting": "Setaria faberi (SETFA) [4]", "result": "4 (4=61-80%)"}, {"measurement": "percentage damage caused to the plant, five-point scale, AMARE", "setting": "[5]", "result": "2 (2=21-40%)"}, {"measurement": "percentage damage caused to the plant, five-point scale, ECHCG", "setting": "[6]", "result": "4 (4=61-80%)"}]}, {"smiles": "Cc1ncnc(Oc2cccc(F)c2-c2cc(C(F)F)co2)c1F", "note": "[Compound 2.008]", "values": [{"measurement": "percentage damage caused to the plant, five-point scale, SETFA", "setting": "Setaria faberi (SETFA) [1]", "result": "4 (4=61-80%)"}, {"measurement": "percentage damage caused to the plant, five-point scale, AMARE", "setting": "[2]", "result": "4 (4=61-80%)"}, {"measurement": "percentage damage caused to the plant, five-point scale, ECHCG", "setting": "[3]", "result": "4 (4=61-80%)"}, {"measurement": "percentage damage caused to the plant, five-point scale, SETFA", "setting": "Setaria faberi (SETFA) [4]", "result": "1 (1=0-20%)"}, {"measurement": "percentage damage caused to the plant, five-point scale, AMARE", "setting": "[5]", "result": "3 (3=41-60%)"}, {"measurement": "percentage damage caused to the plant, five-point scale, ECHCG", "setting": "[6]", "result": "1 (1=0-20%)"}]}, {"smiles": "COc1cc(Oc2cccc(F)c2-c2cc(C(F)F)no2)ncn1", "note": "[Compound 2.017, 3-(difluoromethyl)-5-[2-fluoro-6-(6-methoxypyrimidin-4-yl)oxy-phenyl]isoxazole]", "values": [{"measurement": "percentage damage caused to the plant, five-point scale, SETFA", "setting": "Setaria faberi (SETFA) [1]", "result": "5 (5=81-100%)"}, {"measurement": "percentage damage caused to the plant, five-point scale, AMARE", "setting": "[2]", "result": "5 (5=81-100%)"}, {"measurement": "percentage damage caused to the plant, five-point scale, ECHCG", "setting": "[3]", "result": "5 (5=81-100%)"}, {"measurement": "percentage damage caused to the plant, five-point scale, SETFA", "setting": "Setaria faberi (SETFA) [4]", "result": "4 (4=61-80%)"}, {"measurement": "percentage damage caused to the plant, five-point scale, AMARE", "setting": "[5]", "result": "4 (4=61-80%)"}, {"measurement": "percentage damage caused to the plant, five-point scale, ECHCG", "setting": "[6]", "result": "4 (4=61-80%)"}]}, {"smiles": "COc1cc(Oc2cccc(F)c2-c2cc(C(F)F)no2)ncn1", "note": "[drawing 58]", "values": [{"measurement": "% Phytotoxicity ZEAMX", "setting": "ZEAMX; rate 16 g/ha", "result": 0, "unit": "%"}, {"measurement": "% Phytotoxicity ZEAMX", "setting": "ZEAMX; rate 63 g/ha", "result": 10, "unit": "%"}, {"measurement": "% Phytotoxicity ZEAMX", "setting": "ZEAMX; rate 250 g/ha", "result": 10, "unit": "%"}, {"measurement": "% Phytotoxicity AMARE", "setting": "AMARE; rate 16 g/ha", "result": 60, "unit": "%"}, {"measurement": "% Phytotoxicity AMARE", "setting": "AMARE; rate 63 g/ha", "result": 60, "unit": "%"}, {"measurement": "% Phytotoxicity AMARE", "setting": "AMARE; rate 250 g/ha", "result": 80, "unit": "%"}]}]}
